Measurements reported in patent US20230088704A1, “A PHARMACEUTICAL COMBINATION FOR THE TREATMENT OF A CANCER” (ABILITY PHARMACEUTICALS S.L., priority 2020, published 2023).
Where two headings read alike, the source gives them in different places.

What was measured:
OPM2 cells = assay: Cell viability (MTT) and combination index, ABTL0812 with bortezomib; format: cell-based; conditions: ABTL0812 5 μM, Bortezomib 1 nM, alone or combined; 48h
Description: (§1) Methods: JJN-3 and OPM2 cells were seeded in 24-well plates and treated with ABTL0812 (5 μM), bortezomib (0.5 and 1 nM respectively) or a combination of both drugs and left in the incubator for 48h (0.5% FBS). Cell viability was studied by the MTT assay and combination index was determined to evaluate a possible synergism.
(§2) Cell viability was evaluated in all cases by MTT assay and the Combination Index (CI), to evaluate synergism, was calculated according to the method of Chou and Talalay (Chou 2006; Chou 2010), as follows: CI=(D)1/(Dx)1+(D)2/(Dx)2, where CI<1, =1, and >1 indicate synergism, additive effect, and antagonism, respectively. In the denominator, (Dx)1 is for D1 “alone” that inhibits a system x %, and (Dx)2 is for D2 “alone” that inhibits a system x %.

JJN-3 cells = assay: as above; format: cell-based; conditions: ABTL0812 5 μM, Bortezomib 0.5 nM, alone or combined; 48h
Description: as §1, §2

LA1-5S cells [1] = assay: Cell viability (crystal violet), ABTL0812 with temozolomide; format: cell-based; conditions: ABTL0812 40 μM + temozolomide 500, 1000, 1500 μM; 48 hours; 0.5% FBS
Description: (§3) Methods: LA1-5S and SK-N-BE(2) cells were incubated with increasing concentrations of temozolomide (500 μM, 1000 μM and 1500 μM), and subIC50 fixed concentrations of ABTL0812. (30 μM for SK-N-BE(2) and 40 μM for LA1-5S). Cells were treated for 48 hours in IMDM with 0.5% FBS. Cell viability was evaluated by crystal violet assay. Different doses were assessed in six replicates and the results shown are the average of two independent experiments. Statistical analyses were performed according to the T-Test principle with GraphPad Prism® 5.0 software.

SK-N-BE(2) cells = assay: as above; format: cell-based; conditions: ABTL0812 30 μM + temozolomide 500, 1000, 1500 μM; 48 hours; 0.5% FBS
Description: as §3

LA1-5S cells [2] = assay: Cell viability (crystal violet), ABTL0812 with irinotecan; format: cell-based; conditions: ABTL0812 30 μM + irinotecan 4, 8, 16 μM; 72 hours
Description: Methods: LA1-5S cells were incubated with increasing concentrations of irinotecan (4 μM, 8 μM and 16 μM) and a fixed concentration of ABTL0812 (30 μM). Cells were treated for 72 hours in IMDM with 0.5% FBS. Cell viability was evaluated by crystal violet assay. Data is presented as mean±SEM of three independent experiments. Statistical analyses were performed according to the T-Test principle with GraphPad Prism® 5.0 software (*p<0.05; **p<0.01; ***p<0.001).

LLC1 cells = assay: Syngeneic lung cancer model, subcutaneous LLC1, survival; format: in vivo, C57BL6 mice; conditions: ABTL0812 oral 120 mg/kg/day, anti-PD1 i.p. 100 ug/dose every three days
Description: C57BL6 mice were injected with 0.25×10^6 LLC1 cells in one flank to induce tumor formation. […] Tumor volume and body weight were monitored 3 times a week. End point criteria was based on tumors over 800 mm3, or clinical signs of toxicity, distress or suffering indicative of animal euthanasia.

MiaPaca2 cells = assay: PDL1 protein in xenograft tumors by western blot; format: in vivo, nude mice; conditions: ABTL0812 oral 120 mg/kg/day for three weeks
Description: (§4) Methods: Mice were injected with 4×10^6 H157 cells or 5×10^6 MiaPAca2 cells in one flank to induce tumor formation. […] After treatment, animals were sacrificed, tumor extracted and protein levels of PDL1 in cancer cells analyzed by western blot.

H157 cells = assay: PDL1 protein in xenograft tumors by western blot; format: in vivo, nude mice; conditions: ABTL0812 oral 120 mg/kg/day for three weeks
Description: as §4

MT5 cells = assay: Syngeneic pancreatic cancer model, ABTL0812 vs anti-PD1; format: in vivo, C57BL6 mice
Description: Methods: MT5 cells are a highly tumorigenic murine cell line mutated in KRAS and p53 initially derived from the pancreas of triple transgenic KRAS-p53-Cre (KPC) mice, carrying pancreatic duc-tal adenocarcinoma. […] C57BL6 mice were injected with 2×10^6 MT5 cells in one flank to induce tumor formation. […] The treatment groups were Vehicle, ABTL0812 and anti-PD1. ABTL0812 was administered by the oral route at 480 mg/kg/day. Anti-PD1 antibody was administered i.p. at 200 μg/dose every three days. Tumor volume and body weight were monitored 3 times a week. At the end of the treatments, mice were euthanized, tumors collected and single cell suspension was obtained by digesting tumors using digestion media containing collagenase and lipase and further processing with trypsin and DNAse. Additionally, spleens from treated mice were collected, minced using a strainer, and single cells were obtained after treatment with trypsin and DNAse. After cell suspensions were obtained, cancer cells and immune cells infiltrated withing tumors were stained using specific antibodies against different immune cell subsets and further analyzed using flow cytometry. The combinations used were: Th1 cells=CD45+ CD4+ CCR4− CXCR3+, Th2 cells=CD45+ CD4+ CCR4+ CXCR3−, Myeloid cells=CD45+ CD11b+ Ly6C+ and NKs cells=CD45+ NK1.1+.

Ishikawa cells [3] = format: in vivo; conditions: ABTL0812 oral 120 mg/kg/day; Doxorubicin 5 mg/kg i.p. once a week
Description: Methods: Mice were injected with 4×10^6 Ishikawa cells in one flank to induce tumor formation. […] ABTL0812 was administered by the oral route at 120 mg/kg/day. Doxorubicin 5 mg/kg was administered intra-peritoneally once a week. Tumor volume and body weight were monitored 3 times a week.

Ishikawa cells [4] = assay: Human endometrial cancer xenograft, ABTL0812 with olaparib; format: in vivo; conditions: ABTL0812 oral 120 mg/kg/day; Olaparib oral 50 mg/kg/day
Description: Methods: Mice were injected with 4×10^6 Ishikawa cells in one flank to induce tumor formation. […] Olaparib was administered by the oral route 50 mg/kg/day. Tumor volume and body weight were monitored 3 times a week.

U87MG cells = assay: Human glioblastoma subcutaneous xenograft, ABTL0812 with radiotherapy; format: in vivo, nude mice
Description: (§5) Methods: Mice were injected subcutaneously with 1×10^6 U87MG or T98G cells in each flank to induce tumor formation. […] ABTL0812 was administered orally at 240 mg/kg 5 days/week and radiotherapy as single dose of 4 Gy administered at day 3.

T98G cells = assay: as above; format: in vivo, nude mice
Description: as §5

[5] = ABTL0812 oral 240 mg/kg 5 days/week
[6] = ABTL0812 oral 240 mg/kg 5 days/week + radiotherapy single dose 4 Gy at day 3

`CCCCC/C=C\C/C=C\CCCCCCC(O)C(=O)O` (stereo not shown) [ABTL0812, COOH—CHOH—(CH2)6—(CH═CH—CH2)2—(CH2)3—CH3] was tested, and the cell death (OPM2 cells) was “around 20%”, the cell death (JJN-3 cells) was “around 10%” and the “temozolomide cytotoxicity on addition of ABTL0812” value (LA1-5S cells [1]) was “increased temozolomide cytotoxicity”. The “temozolomide cytotoxicity on addition of ABTL0812” value (SK-N-BE(2) cells) was “increased temozolomide cytotoxicity”, the “irinotecan cytotoxicity on addition of ABTL0812” value (LA1-5S cells [2]) was “significantly increased irinotecan cytotoxicity” and the survival (LLC1 cells; after 9 days of treatment) was 43%. For the same molecule, the survival (LLC1 cells; after 14 days of treatment) was 15%, the “protein levels of PDL1 in tumor” value (MiaPaca2 cells) was “Increases protein levels of PDL1 in tumor in vivo” and the “protein levels of PDL1 in tumor” value (H157 cells) was “Increases protein levels of PDL1 in tumor in vivo”. The tumor volume (MT5 cells; ABTL0812 oral 480 mg/kg/day, anti-PD1 i.p. 200 μg/dose every three days) was “significantly decreasing tumor volume compared with vehicle treatment group”, the “Th1/Th2 ratio in spleen” value (MT5 cells; flow cytometry) was “increase in the Th1/Th2 ratio” and the “Myeloid cells within tumors” value (MT5 cells; flow cytometry, CD45+ CD11b+ Ly6C+) was “increase of Myeloid cells within tumors”. For the same molecule, the “percentage of NK cells within tumor” value (MT5 cells; flow cytometry, CD45+ NK1.1+) was “increase in the percentage of NK cells within tumor”, the tumor volume (Ishikawa cells [3]) was “significantly reduced tumor volume” and the tumor volume (Ishikawa cells [4]) was “significantly reduced tumor volume”. The “growth of subcutaneous tumors, single agent” value (U87MG cells; [5]) was “significantly decreased the growth of glioblastoma subcutaneous tumors”, the “growth of subcutaneous tumors, combination with radiotherapy” value (U87MG cells; [6]) was “significantly more efficacious than ABTL0812 or radiotherapy as single treatments” and the “growth of subcutaneous tumors, single agent” value (T98G cells; [5]) was “significantly decreased the growth of glioblastoma subcutaneous tumors”. The “growth of subcutaneous tumors, combination with radiotherapy” value (T98G cells; [6]) was “significantly more efficacious than ABTL0812 or radiotherapy as single treatments”.
